The source of these data is patent US20130065959A1, “SANITIZING MEAT WITH PERACID AND 2-HYDROXY ORGANIC ACID COMPOSITIONS” (Fresh Express Incorporated, priority 2009, published 2013).

Holding throughout (format): cell-based
The test system of test [1] is E. coli K-12 (ATCC 25253). Put plainly: Attached cells on vegetable and fruit surface (Example 7). The conditions noted are these: 45 sec. As for the experimental part:
(§1) Inoculum preparation: ATCC freeze dried culture was rehydrated in 10 mL of sterilized tryptic soy broth and mixed homogeneously. 0.1 mL of the stock solution was transferred to 10 mL of TSB and incubated at 37C for 24 h. Enrichment was streaked to confirm purity. 2 mL of the enriched stock was transferred to 200 mL of TSB and incubated at 37C for 24 h and 36 h, respectively for E. coli K-12 (ATCC 25253) (EC) and Listeria innocua (ATCC 33090) (LI) resulting in ˜10^8 cfu/mL stationary phase culture stock. The stock was cooled for at 4C for 1 h. Microbial population of the stationary phase stock culture was enumerated by means of serial dilution with 9-mL Butterfield phosphate buffer tubes and spread plating on Tryptic Soy Agar (TSA) pre-poured agar plates for EC or Modified Oxford Agar (MOX) pre-poured agar plates for LI.
(§2) Vegetable and fruit surface inoculation: The 200 mL˜10^8 cfu/mL stock culture solution was homogeneously mixed by shaking and swirling the Erlenmeyer flask. The 200 mL culture was separated into 4 centrifuge tubes (50 mL each) and centrifuged at 10,000 rpm and 4C for 15 min. The stock culture pellet was re-suspended with 5 mL of 5% Horse Serum. All the re-suspended cultures from the four centrifuge tubes were combined to form 20 mL˜10^9 cfu/mL inoculating stock culture. The outer peel or surface of the test vegetable and fruit was cut into 5cm×2.5 cm pieces or diced into […] cubes in the case of tomatoes for inoculation. 50 uL inoculum in the form of 2 uL droplets were spiked onto the strawberry, and diced tomato surface while 100 uL in the form of 2 uL droplets were inoculated onto the potato peel. The spiked surfaces or peels were placed in a biological safety cabinet for 60 min at 18 to 24C for drying.
(§3) Treatment of inoculated vegetable and fruit surfaces: Each sample of inoculated vegetable or fruit surface was placed into a 2.5L stomacher bag containing 500 mL of the tested solution and shook vigorously for 45 s. The tested solutions included city water, lactic acid solution (LA), peracetic acid solution (PA), and FreshRinse solution (FR). The treated vegetable or fruit surface was immediately transferred into a sterile stomacher bag containing 100 mL of Butterfield phosphate buffer with 1 sodium thiosulfate pellet at the end of the 45 s treatment. Each solution treatment was performed in duplications. The reduction for each solution treatment was compared to that of the city water treatment.

Test [2] deals with Listeria innocua (ATCC 33090). Described as above. The conditions noted are these: Whole Strawberry, 45 sec. As for the experimental part: as §1, §2, §3
Test [3] concerns Pseudomonas aeruginosa (ATCC 9027). Briefly: Attached cells on non-food surface coupons (Example 6). The conditions noted are these: 90 sec. As to the method:
Inoculum preparation: Pseudomonas aeruginosa (ATCC 9027) freeze dried culture was rehydrated in 10 mL of sterilized nutrient broth (NB) and mixed homogeneously. 0.1 mL of the stock solution was transferred to 10 mL of NB and incubated at 37C for 24 h. Enrichment was streaked to confirm purity. 10 mL of the enriched stock was transferred to 1,000 mL of NB and incubated at 37C for 24 h resulting in ˜10^8 cfu/mL stationary phase culture stock. The stock was cooled at 4C for 1 h. Microbial population of the stationary phase stock culture was enumerated by means of serial dilution with 9-mL Butterfield phosphate buffer tubes and spread plating on Nutrient Agar […] pre-poured agar plates.
Non-food surface inoculation: The 1000 mL˜10^8 cfu/mL stock culture solution was homogeneously mixed by shaking and swirling the Erlenmeyer flask. The 1000 mL culture was separated into 20 centrifuge tubes (50 mL each) and centrifuged at 10,000 rpm and 4C for 15 min. The stock culture pellet was re-suspended with 50 mL of NB. All the re-suspended cultures from the 20 centrifuge tubes were combined to form 1,000 mL˜10^8 cfu/mL inoculating stock culture. 15 mL of the P. aeruginosa inoculating stock together with a non-food surface coupon (2.5 cm×5 cm) were placed in a sterilized 50mL-centrifuge tube and incubated for 24 h at 37C. After 24 hr, the coupon was transferred to a sterile Petri dish and placed in an oven to dry for 1 hour at 35C. The coupons were cut from stainless steel sheet, wood, glass slide, and plastic sheet.
Treatment of inoculated non-food surfaces: 1 mL of test solution was dispensed onto a 2.5cm×2.5 cm marked area of each inoculated coupon for 60 s. A pre-wet sterilized cotton swab was dipped in 10 mL Butterfield phosphate buffer with sodium thiosulfate and swabbed the marked area on the coupon after 60 s exposure. The swabbed was then immediately placed into the 10 mL Butterfield phosphate buffer with sodium thiosulfate and mixed. One mL was immediately transferred from the aforementioned tube to a 9 mL Butterfield phosphate buffer. The total treatment time including the exposure time, the swabbing time, and the transfer time was 90 s. Each solution treatment was performed in duplications. The reduction for each solution treatment was compared to that of the city water treatment.

In test [4] the test system is E. coli K12. Briefly: Attached cells challenge test on produce leaves (Example 1).

Each structure is given as a SMILES string.

As to `CC(=O)OO` [Peroxyacetic acid, peroxyacetic acid], the Log reductions worked out at 0.6 in test [1] (Diced Tomato, PA 60 ppm, LA 0 ppm); 0.7 in test [1] (Diced Tomato, PA 80 ppm, LA 0 ppm); 1.0 in test [1] (Potato peel, PA 60 ppm, LA 0 ppm); 1.2 in test [1] (Potato peel, PA 80 ppm, LA 0 ppm); 1.1 in test [2] (PA 50 ppm, LA 0 ppm); 0.2 in test [3] (Glass coupon, PA 60 ppm, LA 0 ppm). In addition, the Log reductions is listed as 0.0 in test [3] (Glass coupon, PA 80 ppm, LA 0 ppm); 1.2 in test [3] (Plastic coupon, PA 60 ppm, LA 0 ppm); 0.9 in test [3] (Plastic coupon, PA 80 ppm, LA 0 ppm); 1.5 in test [3] (Stainless steel coupon, PA 60 ppm, LA 0 ppm); 1.4 in test [3] (Stainless steel coupon, PA 100 ppm, LA 0 ppm); 1.0 in test [3] (Wood coupon, PA 100 ppm, LA 0 ppm). Further, the Log reductions in test [3] (Wood coupon, PA 140 ppm, LA 0 ppm) was 0.8. Further, the “Log reduction, attached cells” value in test [4] (Romaine, PAA 60 ppm, LA 0.0%) is recorded as 0.26; in test [4] (Romaine, PAA 70 ppm, LA 0.0%), 0.53; in test [4] (Romaine, PAA 80 ppm, LA 0.0%) it was 1.18; in test [4] (Spinach, PAA 60 ppm, LA 0.0%), 0.69; in test [4] (Spinach, PAA 70 ppm, LA 0.0%) it was 1.33; in test [4] (Spinach, PAA 80 ppm, LA 0.0%) it was 2.46.
With `CC(O)C(=O)O` (stereo not drawn) [Lactic Acid, lactic acid], the Log reductions in test [1] (Diced Tomato, PA 0 ppm, LA 1,500 ppm) was determined as 0.1; in test [1] (Diced Tomato, PA 0 ppm, LA 3,000 ppm) it was 0.0; in test [1] (Potato peel, PA 0 ppm, LA 1,500 ppm), 0.1; in test [1] (Potato peel, PA 0 ppm, LA 3,000 ppm), 0.0; in test [2] (PA 0 ppm, LA 1,500 ppm) it was 0.0; in test [2] (PA 0 ppm, LA 3,000 ppm), 0.5. Also, the Log reductions is given as 0.4 in test [3] (Glass coupon, PA 0 ppm, LA 1,250 ppm); 1.7 in test [3] (Glass coupon, PA 0 ppm, LA 2,500 ppm); 0.6 in test [3] (Plastic coupon, PA 0 ppm, LA 2,500 ppm); 1.2 in test [3] (Plastic coupon, PA 0 ppm, LA 5,000 ppm); 1.6 in test [3] (Stainless steel coupon, PA 0 ppm, LA 1,250 ppm); 1.9 in test [3] (Stainless steel coupon, PA 0 ppm, LA 2,500 ppm). In addition, the Log reductions in test [3] (Wood coupon, PA 0 ppm, LA 2,500 ppm) is recorded as 1.4; in test [3] (Wood coupon, PA 0 ppm, LA 7,500 ppm), 3.6. Further, the “Log reduction, attached cells” value turned out to be 0.24 in test [4] (Romaine, PAA 0 ppm, LA 0.6%); 0.37 in test [4] (Romaine, PAA 0 ppm, LA 0.9%); 1.28 in test [4] (Romaine, PAA 0 ppm, LA 1.2%); 0.09 in test [4] (Spinach, PAA 0 ppm, LA 0.6%); 0.42 in test [4] (Spinach, PAA 0 ppm, LA 0.9%); 0.81 in test [4] (Spinach, PAA 0 ppm, LA 1.2%).
